Measurements reported in ChEMBL document CHEMBL4418912, “Methods of identifying antagonists of the hTAS2R46 bitter taste receptor” (2014).
Calls of active or inactive are those of the source. The calls are words filed in the database; no cut-off is given here.

Experiments:
Assay type in all cases: functional, cell-based
[1] = target: T1, Taste receptor type 2 member 7 (Homo sapiens) (UniProt Q9NYW3); assay: Antagonist activity at recombinant human N-terminal rat ST3 receptor-fused TAS2R7 expressed in HEK293T cells co-expressing Galpha16gust44 assessed as inhibition of quinine sulfate-induced increase in intracellular calcium level at 100 uM by FLIPR assay
T1 sequence (whole entry): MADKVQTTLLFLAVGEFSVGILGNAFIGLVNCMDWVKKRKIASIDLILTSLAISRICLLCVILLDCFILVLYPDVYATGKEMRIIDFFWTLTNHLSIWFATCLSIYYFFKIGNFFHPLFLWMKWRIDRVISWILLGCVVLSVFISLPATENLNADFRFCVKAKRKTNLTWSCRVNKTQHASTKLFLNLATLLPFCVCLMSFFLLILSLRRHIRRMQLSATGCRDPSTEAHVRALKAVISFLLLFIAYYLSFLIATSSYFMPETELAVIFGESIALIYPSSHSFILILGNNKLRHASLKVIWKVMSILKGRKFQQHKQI

[2] = target: Taste receptor type 2 member 60 (Homo sapiens) (UniProt P59551); assay: Agonist activity at recombinant human N-terminal rat ST3 receptor-fused TAS2R60 expressed in HEK293T cells co-expressing Galpha16gust44 assessed as increase in intracellular calcium level at 100 uM by FLIPR assay
Chain of Taste receptor type 2 member 60 (Homo sapiens) (P59551 whole entry, the tested form may be a part): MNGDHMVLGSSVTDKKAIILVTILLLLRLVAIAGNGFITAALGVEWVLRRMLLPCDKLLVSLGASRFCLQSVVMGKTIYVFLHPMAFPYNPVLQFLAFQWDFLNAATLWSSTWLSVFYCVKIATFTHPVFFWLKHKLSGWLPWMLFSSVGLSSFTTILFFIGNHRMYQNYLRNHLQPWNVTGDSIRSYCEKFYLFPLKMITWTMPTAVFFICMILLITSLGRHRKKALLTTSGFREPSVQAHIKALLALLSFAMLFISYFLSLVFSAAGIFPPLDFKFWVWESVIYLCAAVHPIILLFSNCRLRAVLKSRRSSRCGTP

[3] = target: Taste receptor type 2 member 41 (Homo sapiens) (UniProt P59536); assay: Agonist activity at recombinant human N-terminal rat ST3 receptor-fused TAS2R41 expressed in HEK293T cells co-expressing Galpha16gust44 assessed as increase in intracellular calcium level at 100 uM by FLIPR assay
Chain of Taste receptor type 2 member 41 (Homo sapiens) (P59536 whole entry, the tested form may be a part): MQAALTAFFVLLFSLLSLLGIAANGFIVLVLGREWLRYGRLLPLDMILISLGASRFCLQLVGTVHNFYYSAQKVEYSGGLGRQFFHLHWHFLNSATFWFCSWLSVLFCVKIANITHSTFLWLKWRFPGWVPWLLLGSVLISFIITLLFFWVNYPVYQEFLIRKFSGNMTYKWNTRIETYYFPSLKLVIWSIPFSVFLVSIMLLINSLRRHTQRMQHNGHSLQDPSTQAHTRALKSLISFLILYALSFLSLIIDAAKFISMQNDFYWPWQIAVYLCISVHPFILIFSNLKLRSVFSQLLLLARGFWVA

[4] = target: T2, Taste receptor type 2 member 20 (Homo sapiens) (UniProt P59543); assay: Agonist activity at recombinant human N-terminal rat ST3 receptor-fused TAS2R49 expressed in HEK293T cells co-expressing Galpha16gust44 assessed as increase in intracellular calcium level at 100 uM by FLIPR assay
T2 sequence (whole entry): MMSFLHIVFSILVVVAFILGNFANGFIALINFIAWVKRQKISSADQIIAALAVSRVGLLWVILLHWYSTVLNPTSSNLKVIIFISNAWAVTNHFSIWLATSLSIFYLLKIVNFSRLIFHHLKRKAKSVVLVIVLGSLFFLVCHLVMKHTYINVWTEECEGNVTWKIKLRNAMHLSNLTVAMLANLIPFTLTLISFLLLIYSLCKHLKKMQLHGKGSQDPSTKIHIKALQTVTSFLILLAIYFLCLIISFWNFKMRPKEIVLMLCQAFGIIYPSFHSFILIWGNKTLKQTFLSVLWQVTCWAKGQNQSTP

Structure (SMILES) | inhibition [1] | Activity [2] | Activity [3] | Activity [4]
C/C1=C\C[C@H](O)[C@@H](C)C[C@H]2OC(=O)[C@@H](C)[C@@H]2CC1 | inactive | – | – | –
C/C1=C\C[C@H](O)/C(C)=C/[C@H]2OC(=O)[C@@H](C)[C@@H]2CC1 | – | inactive | inactive | inactive
